Reference: US20240425523A1, “Compounds for the Degradation of EGFR Kinase” (Beigene Switzerland GMBH, priority 2023, published 2024)

Columns and labels:
[1] = target: T1, EGFR L858R (BaF3-L858R cells) (Homo sapiens, UniProt P00533, L858R); assay: Cell degradation of EGFR, HTRF assay, BaF3-L858R cells; assay type: cell-based; conditions: 16 h treatment; for DC50: EGFR degradation; for Dmax: maximum percentage of degradation
T1 construct: host or cells: BaF3
Protocol: BaF3-L858R (abbv. L858R) cell were purchased from Kangyuan Bochuang Biotechnology (Beijing) Co., Ltd.
(§1) H1975-#8 and BaF3-L858R cells are treated with compounds diluted in 0.1% DMSO cell culture medium on day 2, incubate for 16 h, 37° C., 5% CO2. the final concentration of compounds in all assay is start with 10 uM, 5-fold dilution, total 8 doses were included.
(§2) After 16 h treatment, for H1975-#8 cells, add 100 ul HTRF 1× lysis buffer to each well; for BaF3-L858R cells, add 20 μl 4× lysis buffer to each well; seal the plate and incubate 1 hour at room temperature on a plate shaker; Once the cells are lysed, 16 μL of cell lysate are transferred to a PE 384-well HTRF detection plate; 4 μL of pre-mixed HTRF antibodies are added to each well; Cover the plate with a plate sealer, spin 1000 rpm for 1 min, Incubate overnight at room temperature; Read on BMG PheraStar with HTRF protocol (337 nm-665 nm-620 nm).
(§3) High control=Cell group with added DMSO and without compound, indicating microplate readings without EGFR degradation;
(§4) Dmax is the maximum percentage of inhibition (degradation).
(§5) The IC50 (DC50) value of a compound can be obtained by fitting the following equation
(§6) Y=Bottom+(TOP−Bottom)/(1+((IC50/X)^hillslope))
(§7) Wherein, X and Y are known values, and IC50, Hillslope, Top and Bottom are the parameters obtained by fitting with software. […] The experimental data were fitted by calculating and analyzing with Dotmatics data analysis software.

[2] = target: T2, EGFR-L858R/C797S (H1975-clone #8 cells) (Homo sapiens, UniProt P00533, C797S/L858R); assay: Cell degradation of EGFR, HTRF assay, H1975-clone#8 (L858R/C797S) cells; assay type: cell-based; conditions: 16 h treatment; for DC50: EGFR degradation; for Dmax: maximum percentage of degradation
T2 construct: expressed in transfected cells; host or cells: H1975 (endogenous EGFR knocked out, clone #8)
Protocol: The EGFR over-expressed cells then underwent knockout, in which the EGFR targeting sgRNA was designed to only target the endogenous EGFR copies and preserve the exogenous EGFR copies. Followed by the knockout, the edited H1975 cells were seeded in 96 well plates at the concentration of […], cultured for about 2 weeks to allow single clones formation. The formed clones were screened by DNA sequencing and whole exon sequencing analysis for the desired edition.
as §1, §2, §3, §4, §5, §6, §7

T2 sequence (P00533 25-1210 C797S/L858R): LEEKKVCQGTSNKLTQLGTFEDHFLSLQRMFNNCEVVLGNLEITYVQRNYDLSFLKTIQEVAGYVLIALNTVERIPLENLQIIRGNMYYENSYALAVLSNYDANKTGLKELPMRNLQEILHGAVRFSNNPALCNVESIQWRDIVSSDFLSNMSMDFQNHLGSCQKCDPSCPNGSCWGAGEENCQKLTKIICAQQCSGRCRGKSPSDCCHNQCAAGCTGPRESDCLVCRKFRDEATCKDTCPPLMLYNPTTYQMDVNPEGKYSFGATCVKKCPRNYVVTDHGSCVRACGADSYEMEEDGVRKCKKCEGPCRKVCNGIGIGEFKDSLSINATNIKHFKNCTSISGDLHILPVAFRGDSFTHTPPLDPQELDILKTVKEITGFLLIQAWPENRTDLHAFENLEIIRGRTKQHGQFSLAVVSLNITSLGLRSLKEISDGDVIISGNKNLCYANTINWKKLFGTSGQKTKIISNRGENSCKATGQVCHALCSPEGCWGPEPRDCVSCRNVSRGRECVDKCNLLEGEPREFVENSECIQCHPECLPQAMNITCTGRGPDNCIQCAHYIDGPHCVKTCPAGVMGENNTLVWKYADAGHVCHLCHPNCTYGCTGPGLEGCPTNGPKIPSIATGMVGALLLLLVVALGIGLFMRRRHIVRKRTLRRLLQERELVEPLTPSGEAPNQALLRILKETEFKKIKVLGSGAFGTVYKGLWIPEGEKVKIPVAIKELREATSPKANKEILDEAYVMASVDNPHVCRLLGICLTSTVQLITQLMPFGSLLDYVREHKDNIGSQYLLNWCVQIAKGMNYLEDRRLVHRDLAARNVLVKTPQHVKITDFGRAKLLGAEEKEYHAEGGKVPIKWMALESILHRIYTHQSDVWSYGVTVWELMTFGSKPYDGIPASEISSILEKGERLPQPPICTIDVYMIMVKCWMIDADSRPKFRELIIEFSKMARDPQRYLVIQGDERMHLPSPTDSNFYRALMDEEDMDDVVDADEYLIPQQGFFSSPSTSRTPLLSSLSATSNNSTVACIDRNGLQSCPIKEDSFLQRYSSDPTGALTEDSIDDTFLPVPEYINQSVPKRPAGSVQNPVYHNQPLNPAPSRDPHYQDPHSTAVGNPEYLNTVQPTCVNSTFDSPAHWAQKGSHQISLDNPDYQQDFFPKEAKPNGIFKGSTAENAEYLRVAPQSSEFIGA
T1 sequence (P00533 25-1210 L858R): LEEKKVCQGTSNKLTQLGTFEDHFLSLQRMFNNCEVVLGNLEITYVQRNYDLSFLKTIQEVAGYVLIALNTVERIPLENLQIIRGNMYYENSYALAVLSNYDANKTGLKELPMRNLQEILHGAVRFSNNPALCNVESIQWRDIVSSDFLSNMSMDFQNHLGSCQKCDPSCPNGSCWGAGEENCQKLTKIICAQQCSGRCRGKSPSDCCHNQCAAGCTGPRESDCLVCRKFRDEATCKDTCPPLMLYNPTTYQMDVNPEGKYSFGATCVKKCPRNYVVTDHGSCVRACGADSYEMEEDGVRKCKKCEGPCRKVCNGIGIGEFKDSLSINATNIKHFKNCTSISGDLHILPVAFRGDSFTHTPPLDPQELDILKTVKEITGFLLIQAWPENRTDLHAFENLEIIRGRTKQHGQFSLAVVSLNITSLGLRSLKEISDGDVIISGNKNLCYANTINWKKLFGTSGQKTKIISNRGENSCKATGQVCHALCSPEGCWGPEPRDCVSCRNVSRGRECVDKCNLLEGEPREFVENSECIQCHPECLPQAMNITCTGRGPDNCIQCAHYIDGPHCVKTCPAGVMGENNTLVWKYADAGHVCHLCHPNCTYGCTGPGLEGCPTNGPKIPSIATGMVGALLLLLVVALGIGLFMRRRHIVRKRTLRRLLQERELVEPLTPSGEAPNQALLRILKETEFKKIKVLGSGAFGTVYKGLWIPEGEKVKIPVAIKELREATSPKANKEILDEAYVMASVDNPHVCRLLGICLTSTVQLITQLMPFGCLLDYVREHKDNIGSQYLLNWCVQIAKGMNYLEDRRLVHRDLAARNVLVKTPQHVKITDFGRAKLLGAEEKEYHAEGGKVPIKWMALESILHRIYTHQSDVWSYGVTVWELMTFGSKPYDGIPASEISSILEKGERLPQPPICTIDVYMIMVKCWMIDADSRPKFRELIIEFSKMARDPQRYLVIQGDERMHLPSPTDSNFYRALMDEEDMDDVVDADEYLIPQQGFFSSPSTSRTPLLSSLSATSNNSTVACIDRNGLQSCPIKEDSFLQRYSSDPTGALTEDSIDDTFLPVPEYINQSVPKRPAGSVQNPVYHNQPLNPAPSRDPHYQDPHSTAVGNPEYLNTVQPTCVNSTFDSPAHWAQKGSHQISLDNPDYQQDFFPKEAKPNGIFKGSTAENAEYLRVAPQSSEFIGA

Structure (SMILES)	DC50 [1] [nM]	Dmax [1] [%]	DC50 [2] [nM]	Dmax [2] [%]
Cc1cc2cc(n1)-c1cnn(C)c1OC[C@H]1CC[C@H](C1)CN1/C(=N/C2=O)Nc2ccc(N3CCN(C4CCN(c5cc(F)c([C@H]6CCC(=O)NC6=O)c(F)c5)CC4)CC3)cc21 [Example 1, (R)-3-(4-(4-(4-((7^1R,7^3S,E)-1^1,2^6-dimethyl-3-oxo-5^2,5^3-dihydro-1^1H,5^1H-9-oxa-4-aza-5(2,1)-benzo[d]imidazola-2(2,4)-pyridina-1(4,5)-pyrazola-7(1,3)-cyclopentanacyclononaphane-5^6-yl)piperazin-1-yl)piperidin-1-yl)-2,6-difluorophenyl)piperidine-2,6-dione]	3.25	89.7	1.41	79.2
Cc1cc2cc(n1)-c1cnn(C)c1OC[C@H]1CC[C@H](C1)CN1/C(=N/C2=O)Nc2ccc(N3CCN(C4CCN(c5ccc(C6CCC(=O)NC6=O)nc5C)CC4)CC3)cc21 (stereo partly drawn) [Example 2, 3-(5-(4-(4-((7^1R,7^3S,E)-1^1,2^6-dimethyl-3-oxo-5^2,5^3-dihydro-1^1H,5^1H-9-oxa-4-aza-5(2,1)-benzo[d]imidazola-2(2,4)-pyridina-1(4,5)-pyrazola-7(1,3)-cyclopentanacyclononaphane-5^6-yl)piperazin-1-yl)piperidin-1-yl)-6-methylpyridin-2-yl)piperidine-2,6-dione]	0.879	87.2	1.38	72.6
Cc1cc2cc(n1)-c1cnn(C)c1OC[C@@H]1CC[C@@H](C1)CN1/C(=N/C2=O)Nc2ccc(N3CCN(C4CCN(c5ccc(C6CCC(=O)NC6=O)nc5C)CC4)CC3)cc21 (stereo partly drawn) [Example 3, 3-(5-(4-(4-((7^1S,7^3R,E)-1^1,2^6-dimethyl-3-oxo-5^2,5^3-dihydro-1^1H,5^1H-9-oxa-4-aza-5(2,1)-benzo[d]imidazola-2(2,4)-pyridina-1(4,5)-pyrazola-7(1,3)-cyclopentanacyclononaphane-5^6-yl)piperazin-1-yl)piperidin-1-yl)-6-methylpyridin-2-yl)piperidine-2,6-dione]	20.1	72.7	16.4	44
CCc1nc(C2CCC(=O)NC2=O)ccc1N1CCC(N2CCN(c3ccc4c(c3)N3C[C@@H]5CC[C@H](COc6c(cnn6C)-c6cc(cc(C)n6)C(=O)/N=C/3N4)C5)CC2)CC1 (stereo partly drawn) [Example 4, 3-(5-(4-(4-((7^1R,7^3S,E)-1^1,2^6-dimethyl-3-oxo-5^2,5^3-dihydro-1^1H,5^1H-9-oxa-4-aza-5(2,1)-benzo[d]imidazola-2(2,4)-pyridina-1(4,5)-pyrazola-7(1,3)-cyclopentanacyclononaphane-5^6-yl)piperazin-1-yl)piperidin-1-yl)-6-ethylpyridin-2-yl)piperidine-2,6-dione]	1.23	87.6	2.34	75.4
Cc1cc2cc(n1)-c1cnn(C)c1OC[C@H]1CC[C@H](C1)CN1/C(=N/C2=O)Nc2ccc(N3CCN(C4CCN(c5cccc6c5C(C)(C)C(=O)N6C5CCC(=O)NC5=O)CC4)CC3)cc21 (stereo partly drawn) [Example 5, 3-(4-(4-(4-((7^1R,7^3S,E)-1^1,2^6-dimethyl-3-oxo-5^2,5^3-dihydro-1^1H,5^1H-9-oxa-4-aza-5(2,1)-benzo[d]imidazola-2(2,4)-pyridina-1(4,5)-pyrazola-7(1,3)-cyclopentanacyclononaphane-5^6-yl)piperazin-1-yl)piperidin-1-yl)-3,3-dimethyl-2-oxoindolin-1-yl)piperidine-2,6-dione]	1.01	84.4	0.856	75.7
Cc1cc2cc(n1)-c1cnn(C)c1OC[C@H]1CC[C@H](C1)CN1/C(=N/C2=O)Nc2ccc(N3CCN(C4CCN(c5cc(F)c(C6CCC(=O)NC6=O)nc5C)CC4)CC3)cc21 (stereo partly drawn) [Example 6, 3-(5-(4-(4-((7^1R,7^3S,E)-1^1,2^6-dimethyl-3-oxo-5^2,5^3-dihydro-1^1H,5^1H-9-oxa-4-aza-5(2,1)-benzo[d]imidazola-2(2,4)-pyridina-1(4,5)-pyrazola-7(1,3)-cyclopentanacyclononaphane-5^6-yl)piperazin-1-yl)piperidin-1-yl)-3-fluoro-6-methylpyridin-2-yl)piperidine-2,6-dione]	3.1	101	1.2	86.6
Cc1cc2cc(n1)-c1cnn(C)c1OC[C@H]1CC[C@H](C1)CN1/C(=N/C2=O)Nc2ccc(N3CCN(CCc4c(C)cc(C5CCC(=O)NC5=O)nc4C)CC3)cc21 (stereo partly drawn) [Example 7, 3-(5-(2-(4-((7^1R,7^3S,E)-1^1,2^6-dimethyl-3-oxo-5^2,5^3-dihydro-1^1H,5^1H-9-oxa-4-aza-5(2,1)-benzo[d]imidazola-2(2,4)-pyridina-1(4,5)-pyrazola-7(1,3)-cyclopentanacyclononaphane-5^6-yl)piperazin-1-yl)ethyl)-4,6-dimethylpyridin-2-yl)piperidine-2,6-dione]	0.631	99.4	2.03	45.4
Cc1cc2cc(n1)-c1cnn(C)c1OC[C@H]1CC[C@H](C1)CN1/C(=N/C2=O)Nc2ccc(N3CCN(CC4CN(c5c(C)cc(C6CCC(=O)NC6=O)nc5C)C4)CC3)cc21 (stereo partly drawn) [Example 8, 3-(5-(3-((4-((7^1R,7^3S,E)-1^1,2^6-dimethyl-3-oxo-5^2,5^3-dihydro-1^1H,5^1H-9-oxa-4-aza-5(2,1)-benzo[d]imidazola-2(2,4)-pyridina-1(4,5)-pyrazola-7(1,3)-cyclopentanacyclononaphane-5^6-yl)piperazin-1-yl)methyl)azetidin-1-yl)-4,6-dimethylpyridin-2-yl)piperidine-2,6-dione]	3.2	64	3.18	74.2
COC[C@@H]1CN(c2ccc3c(c2)N2C[C@@H]4CC[C@H](COc5c(cnn5C)-c5cc(cc(C)n5)C(=O)/N=C/2N3)C4)CCN1C1CCN(c2cc(F)c([C@H]3CCC(=O)NC3=O)c(F)c2)CC1 [Example 9, (R)-3-(4-(4-((S)-4-((7^1R,7^3S,E)-1^1,2^6-dimethyl-3-oxo-5^2,5^3-dihydro-1^1H,5^1H-9-oxa-4-aza-5(2,1)-benzo[d]imidazola-2(2,4)-pyridina-1(4,5)-pyrazola-7(1,3)-cyclopentanacyclononaphane-5^6-yl)-2-(methoxymethyl)piperazin-1-yl)piperidin-1-yl)-2,6-difluorophenyl)piperidine-2,6-dione]	6.11	86.6	4.28	71.7
Cc1cc2cc(n1)-c1cnn(C)c1OC[C@H]1CC[C@H](C1)CN1/C(=N/C2=O)Nc2ccc(N3CCN(C4CCN(c5cc(F)c([C@H]6CCC(=O)NC6=O)c(F)c5)CC4)CC34COC4)cc21 [Example 10, (R)-3-(4-(4-(5-((7^1R,7^3S,E)-1^1,2^6-dimethyl-3-oxo-5^2,5^3-dihydro-1^1H,5^1H-9-oxa-4-aza-5(2,1)-benzo[d]imidazola-2(2,4)-pyridina-1(4,5)-pyrazola-7(1,3)-cyclopentanacyclononaphane-5^6-yl)-2-oxa-5,8-diazaspiro[3.5]nonan-8-yl)piperidin-1-yl)-2,6-difluorophenyl)piperidine-2,6-dione]	4.07	73	3.15	66.8
Cc1cc2cc(n1)-c1cnn(C)c1OC[C@H]1CC[C@H](C1)CN1/C(=N/C2=O)Nc2ccc(N3CCN([C@@H]4CCN(c5cccc6c5C(C)(C)C(=O)N6C5CCC(=O)NC5=O)C[C@@H]4F)CC3)cc21 (stereo partly drawn) [Example 11, 3-(4-((3S,4R)-4-(4-((7^1R,7^3S,E)-1^1,2^6-dimethyl-3-oxo-5^2,5^3-dihydro-1^1H,5^1H-9-oxa-4-aza-5(2,1)-benzo[d]imidazola-2(2,4)-pyridina-1(4,5)-pyrazola-7(1,3)-cyclopentanacyclononaphane-5^6-yl)piperazin-1-yl)-3-fluoropiperidin-1-yl)-3,3-dimethyl-2-oxoindolin-1-yl)piperidine-2,6-dione]	0.834	84.6	3.75	61.5
Cc1cc2cc(n1)-c1cnn(C)c1OC[C@H]1CC[C@H](C1)CN1/C(=N/C2=O)Nc2ccc(N3CCN([C@@H]4CCN(c5ccc(C6CCC(=O)NC6=O)nc5C)C[C@@H]4F)CC3)cc21 (stereo partly drawn) [Example 12, 3-(5-((3S,4R)-4-(4-((7^1R,7^3S,E)-1^1,2^6-dimethyl-3-oxo-5^2,5^3-dihydro-1^1H,5^1H-9-oxa-4-aza-5(2,1)-benzo[d]imidazola-2(2,4)-pyridina-1(4,5)-pyrazola-7(1,3)-cyclopentanacyclononaphane-5^6-yl)piperazin-1-yl)-3-fluoropiperidin-1-yl)-6-methylpyridin-2-yl)piperidine-2,6-dione]	0.493	90	0.774	88.4
